{"source": "patent US9708314B2", "about": "“Heterocyclic amide compound” (NISSAN CHEMICAL INDUSTRIES, LTD., priority 2013, dated 2017)", "type_in_all_cases": "in vivo", "key": {"Lolium multiflorum Lam.": {"system": "Lolium multiflorum Lam.", "assay": "Test Example 4: herbicidal effect by application to foliage (diluvial soil, plastic box)", "settings": "Application herbicide amount 320 g/ha; foliage application", "how_it_was_run": "(§1)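 Plants were grown in sterilized diluvial soil in a greenhouse at 25-30° C for 14 days, then sprayed on stems and leaves with water-diluted emulsion formulation at set rates in g/ha. Weed control and crop injury were scored 3 weeks after treatment on a 0-5 herbicidal-ratio scale, from 0 (≤5%) to 5 (≥90%).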"}, "Amaranthus retroflexus": {"system": "Amaranthus retroflexus", "assay": "Test Example 4: herbicidal effect by application to foliage (diluvial soil, plastic box)", "settings": "Application herbicide amount 320 g/ha; foliage application", "how_it_was_run": "as §1"}, "Veronica persica": {"system": "Veronica persica", "assay": "Test Example 4: herbicidal effect by application to foliage (diluvial soil, plastic box)", "settings": "Application herbicide amount 320 g/ha; foliage application", "how_it_was_run": "as §1"}, "Apera spica-venti.": {"system": "Apera spica-venti.", "assay": "Test Example 4: herbicidal effect by application to foliage (diluvial soil, plastic box)", "settings": "Application herbicide amount 320 g/ha; foliage application", "how_it_was_run": "as §1"}, "Chenopodium album": {"system": "Chenopodium album", "assay": "Test Example 4: herbicidal effect by application to foliage (diluvial soil, plastic box)", "settings": "Application herbicide amount 320 g/ha; foliage application", "how_it_was_run": "as §1"}, "Galium spurium": {"system": "Galium spurium", "assay": "Test Example 4: herbicidal effect by application to foliage (diluvial soil, plastic box)", "settings": "Application herbicide amount 320 g/ha; foliage application", "how_it_was_run": "as §1"}, "Alopecurus myosuroides": {"system": "Alopecurus myosuroides", "assay": "Test Example 4: herbicidal effect by application to foliage (diluvial soil, plastic box)", "settings": "Application herbicide amount 320 g/ha; foliage application", "how_it_was_run": "as §1"}, "Digitaria ciliaris": {"system": "Digitaria ciliaris", "assay": "Test Example 4: herbicidal effect by application to foliage (diluvial soil, plastic box)", "settings": "Application herbicide amount 320 g/ha; foliage application", "how_it_was_run": "as §1"}, "Abutilon theophrasti": {"system": "Abutilon theophrasti", "assay": "Test Example 4: herbicidal effect by application to foliage (diluvial soil, plastic box)", "settings": "Application herbicide amount 320 g/ha; foliage application", "how_it_was_run": "as §1"}, "Avena fatua": {"system": "Avena fatua", "assay": "Test Example 4: herbicidal effect by application to foliage (diluvial soil, plastic box)", "settings": "Application herbicide amount 320 g/ha; foliage application", "how_it_was_run": "as §1"}, "Stellaria media": {"system": "Stellaria media", "assay": "Test Example 4: herbicidal effect by application to foliage (diluvial soil, plastic box)", "settings": "Application herbicide amount 320 g/ha; foliage application", "how_it_was_run": "as §1"}, "Setaria viridis": {"system": "Setaria viridis", "assay": "Test Example 4: herbicidal effect by application to foliage (diluvial soil, plastic box)", "settings": "Application herbicide amount 320 g/ha; foliage application", "how_it_was_run": "as §1"}, "[1]": {"system": "Echinochloa crus-galli var. crus-galli", "assay": "Test Example 4: herbicidal effect by application to foliage (diluvial soil, plastic box)", "settings": "Application herbicide amount 320 g/ha; foliage application", "how_it_was_run": "as §1"}, "Zea mays": {"system": "Zea mays", "assay": "Test Example 4: effect on crop by application to foliage (diluvial soil, plastic box)", "settings": "Application herbicide amount 320 g/ha; foliage application", "how_it_was_run": "as §1"}, "[2]": {"system": "Beta vulgaris ssp. vulgaris", "assay": "Test Example 4: effect on crop by application to foliage (diluvial soil, plastic box)", "settings": "Application herbicide amount 320 g/ha; foliage application", "how_it_was_run": "as §1"}, "Glycine max": {"system": "Glycine max", "assay": "Test Example 4: effect on crop by application to foliage (diluvial soil, plastic box)", "settings": "Application herbicide amount 320 g/ha; foliage application", "how_it_was_run": "as §1"}, "Brassica campestris L.": {"system": "Brassica campestris L.", "assay": "Test Example 4: effect on crop by application to foliage (diluvial soil, plastic box)", "settings": "Application herbicide amount 320 g/ha; foliage application", "how_it_was_run": "as §1"}, "Triticum aestivum": {"system": "Triticum aestivum", "assay": "Test Example 4: effect on crop by application to foliage (diluvial soil, plastic box)", "settings": "Application herbicide amount 320 g/ha; foliage application", "how_it_was_run": "as §1"}, "Cyperus difformis": {"system": "Cyperus difformis", "assay": "Test Example 3: herbicidal effect by application to foliage (Wagner pot, water depth 0.1-0.5 cm)", "settings": "Nineteenth Table; application to foliage; application herbicide amount 320 g/ha", "how_it_was_run": "(§2)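 Alluvial soil in 1/10000 are Wagner pots, sown and grown 14 days in a 25–30 °C greenhouse. An emulsifiable concentrate diluted in water to the set dose (g/ha) was sprayed on stems and leaves. Effect scored three weeks later on a 0–5 scale: 5 = ≥90% herbicidal ratio, 0 = ≤5%.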"}, "Leptochloa chinensis": {"system": "Leptochloa chinensis", "assay": "Test Example 3: herbicidal effect by application to foliage (Wagner pot, water depth 0.1-0.5 cm)", "settings": "Nineteenth Table; application to foliage; application herbicide amount 320 g/ha", "how_it_was_run": "as §2"}, "[3]": {"system": "Echinochloa crus-galli var. crus-galli", "assay": "Test Example 3: herbicidal effect by application to foliage (Wagner pot, water depth 0.1-0.5 cm)", "settings": "Nineteenth Table; application to foliage; application herbicide amount 320 g/ha", "how_it_was_run": "as §2"}, "[4]": {"system": "directly sowed Oryza sativa", "assay": "Test Example 3: effect on crop by application to foliage (Wagner pot, water depth 0.1-0.5 cm)", "settings": "Nineteenth Table; application to foliage; application herbicide amount 320 g/ha", "how_it_was_run": "as §2"}}, "data": [{"smiles": "CC(C)c1nnc2c(C(=O)Nc3nnc(CS(C)(=O)=O)o3)ccc(C(F)(F)F)n12", "note": "[1-142]", "values": [{"measurement": "K (Lolium multiflorum Lam.) herbicidal effect grade", "setting": "Lolium multiflorum Lam.", "value": "0 (Herbicidal ratio of 5% or less (almost no effect))"}, {"measurement": "N (Amaranthus retroflexus) herbicidal effect grade", "setting": "Amaranthus retroflexus", "value": "1 (Herbicidal ratio of 5% or more and less than 20%)"}, {"measurement": "R (Veronica persica) herbicidal effect grade", "setting": "Veronica persica", "value": "0 (Herbicidal ratio of 5% or less (almost no effect))"}, {"measurement": "L (Apera spica-venti.) herbicidal effect grade", "setting": "Apera spica-venti.", "value": "0 (Herbicidal ratio of 5% or less (almost no effect))"}, {"measurement": "O (Chenopodium album) herbicidal effect grade", "setting": "Chenopodium album", "value": "4 (Herbicidal ratio of 70% or more and less than 90%)"}, {"measurement": "Q (Galium spurium) herbicidal effect grade", "setting": "Galium spurium", "value": "1 (Herbicidal ratio of 5% or more and less than 20%)"}, {"measurement": "J (Alopecurus myosuroides) herbicidal effect grade", "setting": "Alopecurus myosuroides", "value": "0 (Herbicidal ratio of 5% or less (almost no effect))"}, {"measurement": "F (Digitaria ciliaris) herbicidal effect grade", "setting": "Digitaria ciliaris", "value": "1 (Herbicidal ratio of 5% or more and less than 20%)"}, {"measurement": "M (Abutilon theophrasti) herbicidal effect grade", "setting": "Abutilon theophrasti", "value": "0 (Herbicidal ratio of 5% or less (almost no effect))"}, {"measurement": "I (Avena fatua) herbicidal effect grade", "setting": "Avena fatua", "value": "0 (Herbicidal ratio of 5% or less (almost no effect))"}, {"measurement": "P (Stellaria media) herbicidal effect grade", "setting": "Stellaria media", "value": "2 (Herbicidal ratio of 20% or more and less than 40%)"}, {"measurement": "G (Setaria viridis) herbicidal effect grade", "setting": "Setaria viridis", "value": "0 (Herbicidal ratio of 5% or less (almost no effect))"}, {"measurement": "H (Echinochloa crus-galli var. crus-galli) herbicidal effect grade", "setting": "[1]", "value": "3 (Herbicidal ratio of 40% or more and less than 70%)"}, {"measurement": "c (Zea mays) effect on crop grade", "setting": "Zea mays", "value": "0 (Herbicidal ratio of 5% or less (almost no effect))"}, {"measurement": "f (Beta vulgaris ssp. vulgaris) effect on crop grade", "setting": "[2]", "value": "3 (Herbicidal ratio of 40% or more and less than 70%)"}, {"measurement": "d (Glycine max) effect on crop grade", "setting": "Glycine max", "value": "0 (Herbicidal ratio of 5% or less (almost no effect))"}, {"measurement": "g (Brassica campestris L.) effect on crop grade", "setting": "Brassica campestris L.", "value": "0 (Herbicidal ratio of 5% or less (almost no effect))"}, {"measurement": "e (Triticum aestivum) effect on crop grade", "setting": "Triticum aestivum", "value": "0 (Herbicidal ratio of 5% or less (almost no effect))"}, {"measurement": "E (herbicidal effect grade)", "setting": "Cyperus difformis", "value": "0 (Herbicidal ratio of 5% or less (almost no effect))"}, {"measurement": "D (herbicidal effect grade)", "setting": "Leptochloa chinensis", "value": "1 (Herbicidal ratio of 5% or more and less than 20%)"}, {"measurement": "H (herbicidal effect grade)", "setting": "[3]", "value": "3 (Herbicidal ratio of 40% or more and less than 70%)"}, {"measurement": "b (effect on crop grade)", "setting": "[4]", "value": "0 (Herbicidal ratio of 5% or less (almost no effect))"}]}]}
